Experimental data published in patent publication US6525001B1, “Substituted pyrimidine and pyridine herbicides” (Mid-American Commercialization Corporation, priority 1997, dated 2003).

Key:
Assay type in all cases: in vivo
[1] = test system: smallflower flatsedge (Cyperus difformis); assay: Test B flood test
In short: (§1)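 Read-out is a visual response score from 0 (no effect) to 10 (complete control), assigned by comparison with untreated controls. Treatment was applied at the 2-leaf stage, and plants stayed in the greenhouse for twelve to sixteen days before scoring.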

[2] = test system: duck salad (Heteranthera limosa); assay: Test B flood test
In short: as §1

[3] = test system: bamyardgrass (Echinochloa crus-galli); assay: Test B flood test
In short: as §1

rice (Oryza sativa) = assay: Test B flood test
In short: as §1

[4] = test system: pigweed (Amaranthus retroflexus); assay: Test B pre-/postemergence; design: key: 0 is no effect; 10 is complete control
In short: (§2)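 Compounds in a surfactant-containing, non-phytotoxic solvent blend are applied to freshly planted seed (preemergence) and, concurrently, to seedlings of 2 to 18 cm at 1–4 leaves (postemergence). Plants stay in the greenhouse twelve to sixteen days and are then scored visually from 0 (no effect) to 10 (complete control).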

[5] = test system: sugar beet (Beta vulgaris); assay: Test B pre-/postemergence; design: key: 0 is no effect; 10 is complete control
In short: as §2

[6] = test system: wheat (Triticum aestivum); assay: Test B pre-/postemergence; design: key: 0 is no effect; 10 is complete control
In short: as §2

corn (Zea mays) = assay: Test B pre-/postemergence; design: key: 0 is no effect; 10 is complete control
In short: as §2

[7] = test system: cocklebur (Xanthium strumarium); assay: Test B pre-/postemergence; design: key: 0 is no effect; 10 is complete control
In short: as §2

[8] = test system: giant foxtail (Setaria faberii); assay: Test B pre-/postemergence; design: key: 0 is no effect; 10 is complete control
In short: as §2

rape (Brassica napus) = assay: Test B pre-/postemergence; design: key: 0 is no effect; 10 is complete control
In short: as §2

[9] = test system: bedstraw (Galium aparine); assay: Test B pre-/postemergence; design: key: 0 is no effect; 10 is complete control
In short: as §2

[10] = test system: broadleaf signalgrass (Brachiaria decumbens); assay: Test B pre-/postemergence; design: key: 0 is no effect; 10 is complete control
In short: as §2

[11] = test system: velvetleaf (Abutilon theophrasti); assay: Test B pre-/postemergence; design: key: 0 is no effect; 10 is complete control
In short: as §2

[12] = test system: momingglory (Ipomoea hederacea); assay: Test B pre-/postemergence; design: key: 0 is no effect; 10 is complete control
In short: as §2

[13] = Rate 62 g/ha, Postemergence (flood test)
[14] = Rate 125 g/ha, Postemergence section (flood test species)
[15] = Rate 250 g/ha, Postemergence (flood test species)
[16] = Rate 500 g/ha, Postemergence (flood test species)

Cc1cnc(-n2ccc(C(F)(F)F)n2)nc1Cn1ccc(C(F)(F)F)n1 [Compound 52]
Plant response rating, S. Flatsedge [1, 13]: 9
S. Flatsedge plant response rating [1, 14]: 9
Plant response rating, S. Flatsedge [1, 15]: 9
Plant response rating, S. Flatsedge [1, 16]: 9
Plant response rating, Ducksalad [2, 13]: 9
Ducksalad plant response rating [2, 14]: 9
Plant response rating, Ducksalad [2, 15]: 9
Plant response rating, Ducksalad [2, 16]: 9
Plant response rating, Barnyardgrass [3, 13]: 5
Barnyardgrass plant response rating [3, 14]: 6
Plant response rating, Barnyardgrass [3, 15]: 7
Plant response rating, Barnyardgrass [3, 16]: 8
Plant response rating, Rice (rice (Oryza sativa); [13]): 3
Rice plant response rating (rice (Oryza sativa); [14]): 5
Plant response rating, Rice (rice (Oryza sativa); [15]): 7
Plant response rating, Rice (rice (Oryza sativa); [16]): 7
Plant response rating, Redroot pigweed ([4]; Rate 62 g/ha, Postemergence): 9
Redroot pigweed plant response rating ([4]; Rate 62 g/ha, Preemergence): 10
Redroot pigweed plant response rating ([4]; Rate 125 g/ha, Postemergence): 10
Plant response rating, Redroot pigweed ([4]; Rate 125 g/ha, Preemergence): 10
Plant response rating, Redroot pigweed ([4]; Rate 250 g/ha, Postemergence): 10
Plant response rating, Redroot pigweed ([4]; Rate 250 g/ha, Preemergence): 10
Plant response rating, Redroot pigweed ([4]; Rate 500 g/ha, Postemergence): 10
Plant response rating, Redroot pigweed ([4]; Rate 500 g/ha, Preemergence): 10
Plant response rating, Sugarbeets ([5]; Rate 62 g/ha, Postemergence): 9
Sugarbeets plant response rating ([5]; Rate 62 g/ha, Preemergence): 10
Sugarbeets plant response rating ([5]; Rate 125 g/ha, Postemergence): 10
Plant response rating, Sugarbeets ([5]; Rate 125 g/ha, Preemergence): 10
Plant response rating, Sugarbeets ([5]; Rate 250 g/ha, Postemergence): 10
Plant response rating, Sugarbeets ([5]; Rate 250 g/ha, Preemergence): 10
Plant response rating, Sugarbeets ([5]; Rate 500 g/ha, Postemergence): 10
Plant response rating, Sugarbeets ([5]; Rate 500 g/ha, Preemergence): 10
Wheat plant response rating ([6]; Rate 62 g/ha, Postemergence): 4
Wheat plant response rating ([6]; Rate 62 g/ha, Preemergence): 2
Wheat plant response rating ([6]; Rate 125 g/ha, Postemergence): 7
Plant response rating, Wheat ([6]; Rate 125 g/ha, Preemergence): 2
Plant response rating, Wheat ([6]; Rate 250 g/ha, Postemergence): 7
Plant response rating, Wheat ([6]; Rate 250 g/ha, Preemergence): 3
Plant response rating, Wheat ([6]; Rate 500 g/ha, Postemergence): 8
Plant response rating, Wheat ([6]; Rate 500 g/ha, Preemergence): 6
Plant response rating, Corn (corn (Zea mays); Rate 62 g/ha, Postemergence): 4
Corn plant response rating (corn (Zea mays); Rate 62 g/ha, Preemergence): 3
Corn plant response rating (corn (Zea mays); Rate 125 g/ha, Postemergence): 5
Plant response rating, Corn (corn (Zea mays); Rate 125 g/ha, Preemergence): 3
Plant response rating, Corn (corn (Zea mays); Rate 250 g/ha, Postemergence): 6
Plant response rating, Corn (corn (Zea mays); Rate 250 g/ha, Preemergence): 7
Plant response rating, Corn (corn (Zea mays); Rate 500 g/ha, Postemergence): 7
Plant response rating, Corn (corn (Zea mays); Rate 500 g/ha, Preemergence): 8
Plant response rating, Cocklebur ([7]; Rate 62 g/ha, Postemergence): 8
Cocklebur plant response rating ([7]; Rate 62 g/ha, Preemergence): 1
Cocklebur plant response rating ([7]; Rate 125 g/ha, Postemergence): 8
Plant response rating, Cocklebur ([7]; Rate 250 g/ha, Postemergence): 9
Plant response rating, Cocklebur ([7]; Rate 250 g/ha, Preemergence): 7
Plant response rating, Cocklebur ([7]; Rate 500 g/ha, Postemergence): 9
Plant response rating, Cocklebur ([7]; Rate 500 g/ha, Preemergence): 10
Plant response rating, Giant foxtail ([8]; Rate 62 g/ha, Postemergence): 7
Giant foxtail plant response rating ([8]; Rate 62 g/ha, Preemergence): 9
Giant foxtail plant response rating ([8]; Rate 125 g/ha, Postemergence): 8
Plant response rating, Giant foxtail ([8]; Rate 125 g/ha, Preemergence): 9
Plant response rating, Giant foxtail ([8]; Rate 250 g/ha, Postemergence): 9
Plant response rating, Giant foxtail ([8]; Rate 250 g/ha, Preemergence): 10
Plant response rating, Giant foxtail ([8]; Rate 500 g/ha, Postemergence): 9
Plant response rating, Giant foxtail ([8]; Rate 500 g/ha, Preemergence): 10
Plant response rating, Rape (rape (Brassica napus); Rate 62 g/ha, Postemergence): 9
Rape plant response rating (rape (Brassica napus); Rate 62 g/ha, Preemergence): 9
Rape plant response rating (rape (Brassica napus); Rate 125 g/ha, Postemergence): 9
Plant response rating, Rape (rape (Brassica napus); Rate 125 g/ha, Preemergence): 10
Plant response rating, Rape (rape (Brassica napus); Rate 250 g/ha, Postemergence): 9
Plant response rating, Rape (rape (Brassica napus); Rate 250 g/ha, Preemergence): 10
Plant response rating, Rape (rape (Brassica napus); Rate 500 g/ha, Postemergence): 10
Plant response rating, Rape (rape (Brassica napus); Rate 500 g/ha, Preemergence): 10
Plant response rating, Bedstraw ([9]; Rate 62 g/ha, Postemergence): 9
Bedstraw plant response rating ([9]; Rate 62 g/ha, Preemergence): 7
Bedstraw plant response rating ([9]; Rate 125 g/ha, Postemergence): 10
Plant response rating, Bedstraw ([9]; Rate 125 g/ha, Preemergence): 8
Plant response rating, Bedstraw ([9]; Rate 250 g/ha, Postemergence): 10
Plant response rating, Bedstraw ([9]; Rate 250 g/ha, Preemergence): 9
Plant response rating, Bedstraw ([9]; Rate 500 g/ha, Postemergence): 10
Plant response rating, Bedstraw ([9]; Rate 500 g/ha, Preemergence): 10
Plant response rating, B. signalgrass ([10]; Rate 62 g/ha, Postemergence): 4
B. signalgrass plant response rating ([10]; Rate 62 g/ha, Preemergence): 8
B. signalgrass plant response rating ([10]; Rate 125 g/ha, Postemergence): 9
Plant response rating, B. signalgrass ([10]; Rate 125 g/ha, Preemergence): 9
Plant response rating, B. signalgrass ([10]; Rate 250 g/ha, Postemergence): 9
Plant response rating, B. signalgrass ([10]; Rate 250 g/ha, Preemergence): 10
Plant response rating, B. signalgrass ([10]; Rate 500 g/ha, Postemergence): 9
Plant response rating, B. signalgrass ([10]; Rate 500 g/ha, Preemergence): 10
Plant response rating, Velvetleaf ([11]; Rate 62 g/ha, Postemergence): 8
Velvetleaf plant response rating ([11]; Rate 62 g/ha, Preemergence): 10
Velvetleaf plant response rating ([11]; Rate 125 g/ha, Postemergence): 8
Plant response rating, Velvetleaf ([11]; Rate 125 g/ha, Preemergence): 10
Plant response rating, Velvetleaf ([11]; Rate 250 g/ha, Postemergence): 8
Plant response rating, Velvetleaf ([11]; Rate 250 g/ha, Preemergence): 10
Plant response rating, Velvetleaf ([11]; Rate 500 g/ha, Postemergence): 9
Plant response rating, Velvetleaf ([11]; Rate 500 g/ha, Preemergence): 10
Plant response rating, Morningglory ([12]; Rate 62 g/ha, Postemergence): 10
Morningglory plant response rating ([12]; Rate 62 g/ha, Preemergence): 9
Morningglory plant response rating ([12]; Rate 125 g/ha, Postemergence): 10
Plant response rating, Morningglory ([12]; Rate 125 g/ha, Preemergence): 10
Plant response rating, Morningglory ([12]; Rate 250 g/ha, Postemergence): 10
Plant response rating, Morningglory ([12]; Rate 250 g/ha, Preemergence): 10
Plant response rating, Morningglory ([12]; Rate 500 g/ha, Postemergence): 10
Plant response rating, Morningglory ([12]; Rate 500 g/ha, Preemergence): 10
